In patent publication US20030216361A1, “Therapeutic compositions effective against gram positive bacteria” (priority 2000, published 2003):
Values after ≈ are worked out from the molar mass of the structure shown. Where two headings read alike, the source gives them in different places.

Key:
[1] = system: Bacillus subtilis Presque Isle 620; experiment: Disk diffusion susceptibility testing
[2] = system: Arcanobacterium haemolyticum; experiment: Broth macrodilution MIC and MBC, clinical isolates; settings: clinical isolate, 1 strain
S. saprophyticus = experiment: Broth macrodilution MIC and MBC, clinical isolates; settings: 3 strains
[3] = system: Staphylococcus aureus ATCC 29213; experiment: Frequency of occurrence of spontaneous resistant mutants; type: cell-based; settings: 24 h
Description: (§1) Overnight cultures of S. aureus 29213, E. faecalis 29212, S. pneumoniae 6303 and Bacillus subtilis 620 were diluted to an OD625nm=0.08 0.1 ml of each preparation was spread onto agar plates containing four or eight times the broth macrodilution MIC of the androstane derivative. The starting inoculum for each organism was also diluted and plated onto drug-free plates for determination of CFU/ml. After a 24 h incubation at the appropriate temperature, the number of bacterial colonies on drug-supplemented agar was counted. The frequency of occurrence of spontaneous mutants was calculated by dividing the number of colonies on drug containing plates by the number of colonies in the inoculum. When no colonies were visualized on drug-containing plates, the calculation was (<) 1 colony divided by the number of colonies in the inoculum.

[4] = system: Bacillus subtilis Presque Isle 620; experiment: as above; type: cell-based; settings: 24 h
Description: as §1

[5] = system: Streptococcus pneumoniae ATCC 6303; experiment: as above; type: cell-based; settings: 24 h
Description: as §1

[6] = system: Enterococcus faecalis ATCC 29212; experiment: as above; type: cell-based; settings: 24 h
Description: as §1

R. equi = experiment: Broth macrodilution MIC and MBC, clinical isolates; settings: 3 strains
B. licheniformis = experiment: Broth macrodilution MIC and MBC, clinical isolates; settings: clinical isolate, 1 strain
E. faecalis ATCC 29212 = experiment: Effect of pH on broth macrodilution MICs; type: cell-based, Enterococcus faecalis
[7] = system: Staphylococcus epidermidis Presque Isle 4653; experiment: Disk diffusion susceptibility testing
[8] = system: Enterococcus faecalis ATCC 29212; experiment: Broth macrodilution MIC and MBC, reference strains; settings: ATCC29212
B. cereus = experiment: Broth macrodilution MIC and MBC, clinical isolates; settings: 5 strains
S. pneumoniae 6303 = experiment: Time-kill studies; type: cell-based, Streptococcus pneumoniae
From the text: This experiment illustrates a study of the time required (time-kill studies) for anti-microbial action of 3β-acetoxy-17β-(L-prolyl) amino-5α-androstane with certain gram positive bacteria.
Overnight cultures of Staphylococcus aureus 29213, Enterococcus faecalis 29212 and S. pneumoniae 6303 in MHII broth were inoculated into the same medium containing multiples of the broth macrodilution MIC of 3β-acetoxy-17β-(L-prolyl) amino-5α-androstane, or an equivalent volume of MeOH. Cultures were shaken at 37° C., and aliquots were aseptically removed at various times for dilution plating. Standard errors of the means were calculated from at least two experiments. The detection limit in these experiments was 10 CFU/ml.

[9] = system: Micrococcus luteus Presque Isle 456; experiment: Broth macrodilution MIC and MBC, reference strains
[10] = system: Vancomycin-resistant Enterococcus spp.; experiment: Broth macrodilution MIC and MBC, clinical isolates
[11] = system: Stenotrophomonas maltophilia ATCC 13637; experiment: Disk diffusion susceptibility testing
[12] = system: Proteus vulgaris Presque Isle 365; experiment: Disk diffusion susceptibility testing
B. circulans = experiment: Broth macrodilution MIC and MBC, clinical isolates; settings: clinical isolate, 1 strain
[13] = system: S. epidermidis Presque Isle 4653; experiment: Broth macrodilution MIC and MBC, reference strains; settings: Staphylococcus epidermidis
[14] = system: Vancomycin-resistant E. faecium; experiment: Broth macrodilution MIC and MBC, clinical isolates; settings: 2 strains
[15] = system: Streptococcus pneumoniae ATCC 6303; experiment: Broth macrodilution MIC and MBC, reference strains; settings: ATCC6303
[16] = system: Micrococcus luteus Presque Isle 456; experiment: Disk diffusion susceptibility testing
[17] = system: Pseudomonas aeruginosa Presque Isle 99; experiment: Disk diffusion susceptibility testing
Nocardia asteroides = experiment: Broth macrodilution MIC and MBC, clinical isolates; settings: clinical isolate, 1 strain
[18] = system: Penicillin-resistant Streptococcus pneumoniae; experiment: Broth macrodilution MIC and MBC, clinical isolates
[19] = agar with 4X broth macrodilution MIC
[20] = agar with 8X broth macrodilution MIC

With `CC(=O)O[C@H]1CC[C@@]2(C)[C@@H](CC[C@@H]3[C@@H]2CC[C@]2(C)[C@@H](NC(=O)[C@@H]4CCCN4)CC[C@@H]32)C1` the MIC [1] was 3.12-6.25 μg/disk, the “MBC Range” value [2] was 32 µg/mL (≈ 74.3 µM) and the “MIC Range” value [2] was 16 µg/mL (≈ 37.2 µM). For the same compound, the “MBC Range” value (S. saprophyticus) was 8 µg/mL (≈ 18.6 µM), the “MIC Range” value (S. saprophyticus) was 4 to 8 µg/mL and the “Frequency at 4X MIC” value [3, 19] was 1.2 × 10^−6. The “Frequency at 8X MIC” value [3, 20] was <6 × 10^−9, the “Frequency at 4X MIC” value [4, 19] was <2.2 × 10^−7 and the “Frequency at 8X MIC” value [4, 20] was <2.2 × 10^−7. For the same compound, the “Frequency at 4X MIC” value [5, 19] was <3.3 × 10^−6, the “Frequency at 8X MIC” value [5, 20] was <3.3 × 10^−6 and the “Frequency at 4X MIC” value [6, 19] was 8.9 × 10^−7. For the same compound, the “Frequency at 8X MIC” value [6, 20] was <1 × 10^−8, the “MBC Range” value (R. equi) was 16 to 32 µg/mL and the “MIC Range” value (R. equi; read after 48 h) was 4 to 8 µg/mL. The “MBC Range” value (B. licheniformis) was over 64 µg/mL, the “MIC Range” value (B. licheniformis) was 32 µg/mL (≈ 74.3 µM) and the MIC Range (E. faecalis ATCC 29212; pH 6, range of 3 determinations) was 32 µg/mL (≈ 74.3 µM). The MIC Range (E. faecalis ATCC 29212; pH 7, range of 3 determinations) was 8 to 16 µg/mL, the MIC Range (E. faecalis ATCC 29212; pH 8, range of 3 determinations) was 4 to 8 µg/mL and the MIC [7] was 6.25-12.5 μg/disk. The MBC [8] was 32 µg/mL (≈ 74.3 µM), the MIC [8] was 16 µg/mL (≈ 37.2 µM) and the “MBC Range” value (B. cereus) was over 64 µg/mL. For the same compound, the “MIC Range” value (B. cereus) was 32 µg/mL (≈ 74.3 µM), the “Killing (concentration dependence)” value (S. pneumoniae 6303) was “concentration-dependent” and the “Killing (time dependence)” value (S. pneumoniae 6303) was “time-dependent”. For the same compound, the “time to 99.9% kill” value (S. pneumoniae 6303; at the MIC) was 6 h, the “survivors after 24 h” value (S. pneumoniae 6303; one times the MIC) was “no survivors” and the “time to 99.9% kill” value (S. pneumoniae 6303; two times the MIC) was 2 h. The “survivors after 24 h” value (S. pneumoniae 6303; two times the MIC) was “no survivors”, the MBC [9] was 64 µg/mL (≈ 149 µM) and the MIC [9] was 8 µg/mL (≈ 18.6 µM). For the same compound, the MIC50 ([10]; Enterococcus) was 8 µg/mL (≈ 18.6 µM), the MIC90 ([10]; Enterococcus) was 16 µg/mL (≈ 37.2 µM) and the MBC ([10]; Enterococcus, read-out: MBC 50%) was 16 µg/mL (≈ 37.2 µM). The MBC ([10]; Enterococcus, read-out: MBC 90%) was over 64 µg/mL, the “MIC Range” value ([10]; clinical isolates, 34 strains) was 4 to 16 µg/mL and the “share of strains with MBC/MIC ratios ≦2” value ([10]; vancomycin-resistant Enterococcus spp.) was 59%. For the same compound, the MIC [11] was over 100 μg/disk, the MIC [12] was over 100 μg/disk and the “MBC Range” value (B. circulans) was over 64 µg/mL. For the same compound, the “MIC Range” value (B. circulans) was 16 µg/mL (≈ 37.2 µM), the MBC [13] was 32 µg/mL (≈ 74.3 µM) and the MIC [13] was 8 µg/mL (≈ 18.6 µM). The “MBC Range” value [14] was 16 to 64 µg/mL, the “MIC Range” value [14] was 8 to 16 µg/mL and the MBC [15] was 16 µg/mL (≈ 37.2 µM). The MIC [15] was 16 µg/mL (≈ 37.2 µM), the MIC [16] was 1.56-3.12 μg/disk and the MIC [17] was over 100 μg/disk. For the same compound, the “MBC Range” value (Nocardia asteroides) was 32 µg/mL (≈ 74.3 µM), the “MIC Range” value (Nocardia asteroides) was 8 µg/mL (≈ 18.6 µM) and the MIC50 ([18]; Streptococcus pneumoniae) was 16 µg/mL (≈ 37.2 µM). The MIC90 ([18]; Streptococcus pneumoniae) was 16 µg/mL (≈ 37.2 µM), the MBC ([18]; Streptococcus pneumoniae, read-out: MBC 50%) was 16 µg/mL (≈ 37.2 µM) and the MBC ([18]; Streptococcus pneumoniae, read-out: MBC 90%) was 32 µg/mL (≈ 74.3 µM). For the same compound, the “MIC Range” value ([18]; clinical isolates, 35 strains) was 8 to 32 µg/mL and the “share of strains with MBC/MIC ratios ≦2” value ([18]; penicillin-resistant S. pneumoniae) was 88%.
